According to patent US8778966B2, “Quinolinone derivatives as PARP and tank inhibitors” (Janssen Pharmaceutica, NV, priority 2007, dated 2014):

What was measured:
HCT116 cells = test: Mitotic arrest assay on HCT116 cells (phospho-histone H3 Ser10); assay type: cell-based, human; details: Homo sapiens, HCT-116, HCT116 cells; lowest active dose; read-out: Mitotic arrest HCT116 LAD (converted)
Method in brief: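 Read-out is imaging of phospho-histone H3 Ser10 (Alexa Fluor 488) with Hoechst nuclear counting, after 6 h compound exposure at 37 °C, DMSO ≤0.1%. LAD is the lowest dose at which the blank-corrected value over SD exceeds 5; triplicates, low-count wells excluded.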

Human PARP-1 enzyme = target: T1, Human PARP-1 enzyme (Homo sapiens, UniProt P09874); test: In vitro Scintillation Proximity Assay (SPA) for PARP-1 inhibitory activity; assay type: biochemical; details: read-out: in vitro SPA assay PARP-1 pIC50 (converted)
T1 construct: purchased Trevigen
T1 sequence (P09874 whole entry): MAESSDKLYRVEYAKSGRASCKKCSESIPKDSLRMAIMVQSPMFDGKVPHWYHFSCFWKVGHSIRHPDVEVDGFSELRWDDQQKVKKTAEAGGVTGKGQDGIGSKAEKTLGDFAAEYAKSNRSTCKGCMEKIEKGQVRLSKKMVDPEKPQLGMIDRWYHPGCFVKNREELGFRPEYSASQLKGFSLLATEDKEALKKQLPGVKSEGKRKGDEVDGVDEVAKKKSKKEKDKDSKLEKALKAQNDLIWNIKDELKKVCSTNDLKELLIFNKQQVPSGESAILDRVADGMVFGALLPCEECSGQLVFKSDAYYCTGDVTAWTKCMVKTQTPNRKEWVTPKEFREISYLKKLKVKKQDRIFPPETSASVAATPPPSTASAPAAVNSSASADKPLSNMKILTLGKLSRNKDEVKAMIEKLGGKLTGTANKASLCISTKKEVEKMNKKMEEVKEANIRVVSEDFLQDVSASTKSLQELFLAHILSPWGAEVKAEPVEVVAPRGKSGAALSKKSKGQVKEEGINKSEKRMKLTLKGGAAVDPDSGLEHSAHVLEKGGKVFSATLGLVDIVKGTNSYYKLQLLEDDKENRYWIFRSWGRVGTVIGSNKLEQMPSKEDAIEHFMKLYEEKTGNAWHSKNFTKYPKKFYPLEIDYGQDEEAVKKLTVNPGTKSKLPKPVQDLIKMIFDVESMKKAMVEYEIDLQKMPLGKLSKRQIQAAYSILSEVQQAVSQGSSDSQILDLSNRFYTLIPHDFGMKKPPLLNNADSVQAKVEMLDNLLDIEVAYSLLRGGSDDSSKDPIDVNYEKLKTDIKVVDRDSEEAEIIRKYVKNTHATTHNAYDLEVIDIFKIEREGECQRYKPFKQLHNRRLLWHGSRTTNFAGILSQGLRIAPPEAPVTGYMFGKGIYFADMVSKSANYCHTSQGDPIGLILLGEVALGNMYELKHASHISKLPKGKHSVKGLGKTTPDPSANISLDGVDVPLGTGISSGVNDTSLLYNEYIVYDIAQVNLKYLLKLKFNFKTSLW
Method in brief: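 SPA assay: nicked-DNA-activated PARP-1 (0.1–0.2 μg/ml) ADP-ribosylates biotinylated histones (2 μg/ml) using [3H]-NAD+, 20 min at RT in Tris pH 8/DTT/MgCl2, stopped with 2 mM NAD+. Blank-subtracted cpm expressed as % control; IC50 by linear interpolation, reported as pIC50 (10−5 to 3×10−9 M tested).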

Row | SMILES | minimal effective concentration (HCT116 cells) | IC50 (Human PARP-1 enzyme)
1 | CCc1cc2ccc(C(C)(C#N)Cc3cc(N(C)C)nc(C#N)n3)cc2[nH]c1=O (stereo not shown) [Compound 317] | 1 µM | 79.4 nM
2 | CCc1cc2ccc(C(C)(C#N)Cc3nc(C#N)cc(N(C)C)n3)cc2[nH]c1=O (stereo not shown) [Compound 318] | 0.3 µM | 79.4 nM
3 | CCc1cc2ccc(C(C)(C#N)Cc3cc(C#N)nc(C)n3)cc2[nH]c1=O (stereo not shown) [Compound 319] | 0.3 µM | 200 nM
4 | CCc1cc2ccc(C(C)(C#N)Cc3cc(N(C)C)nc(N(C)C)n3)cc2[nH]c1=O (stereo not shown) [Compound 320] | 0.3 µM | 200 nM
5 | CCc1cc2ccc(C(C)(C#N)Cc3cc(N(C)C)nc(C)n3)cc2[nH]c1=O (stereo not shown) [Compound 322] | 1 µM | 200 nM
6 | CCc1cc2ccc(C(C)(C#N)Cc3cc(Cl)nc(N(C)C)c3)cc2[nH]c1=O (stereo not shown) [Compound 323] | 0.3 µM | 79.4 nM
7 | CCc1cc2ccc(C(C)(C#N)Cc3cccc(NC)n3)cc2[nH]c1=O (stereo not shown) [Compound 339] | 1 µM | 39.8 nM
8 | CCc1cc2ccc(C(C)(C#N)Cc3ccc4c(c3)OC(F)(F)O4)cc2[nH]c1=O (stereo not shown) [Compound 346] | 1 µM | 79.4 nM
9 | CCc1cc2ccc(C(C)(C#N)Cc3cc(Cl)nc(OC)c3)cc2[nH]c1=O (stereo not shown) [Compound 351] | 0.1 µM | 63.1 nM
10 | CCc1cc2ccc(C(C)(C#N)Cc3cc(N(C)C)nc(OC)n3)cc2[nH]c1=O (stereo not shown) [Compound 354] | 1 µM | 79.4 nM
11 | CCc1cc2ccc(C(C)(C#N)Cc3nc(OC)cc(N(C)C)n3)cc2[nH]c1=O (stereo not shown) [Compound 355] | 0.1 µM | 50.1 nM
12 | CCc1cc2ccc(C(C)(C#N)Cc3cc(Cl)nc(C)n3)cc2[nH]c1=O (stereo not shown) [Compound 365] | 0.3 µM | 126 nM
13 | CCc1cc2ccc(C(C)(C#N)CN3CCC(c4ccccc4)CC3)cc2[nH]c1=O (stereo not shown) [Compound 375] | 0.3 µM | 158 nM
14 | CCc1cc2ccc(C(C)(C#N)CN3CCN(c4ccc(C#N)cn4)CC3)cc2[nH]c1=O (stereo not shown) [Compound 377] | 0.3 µM | 50.1 nM
15 | CCc1cc2ccc(C(C)(C#N)Cc3cc(Br)cc4c3OCC4)cc2[nH]c1=O (stereo not shown) [Compound 378] | 0.1 µM | 79.4 nM
16 | CCc1cc2ccc(C(C)(C#N)Cc3cccc4[nH]ccc34)cc2[nH]c1=O (stereo not shown) [Compound 379] | 0.3 µM | 25.1 nM
17 | Cc1cc2ccc([C@](C)(C#N)[C@H]3CCc4ccccc43)cc2[nH]c1=O [Compound 387] | 3 µM | 200 nM
18 | Cc1cc2ccc(C(C)(C#N)C3CCc4ccccc43)cc2[nH]c1=O (stereo not shown) [Compound 392] | 0.3 µM | 126 nM
19 | Cc1cc2ccc(C(C)(C#N)C3CCCc4ccccc43)cc2[nH]c1=O (stereo not shown) [Compound 404] | 1 µM | 200 nM
20 | Cc1cc2ccc(C(C)(C#N)Cc3cccc(/C=C/CCO)c3)cc2[nH]c1=O (stereo not shown) [Compound 409] | 0.3 µM | 100 nM
